Like-named read-outs stand apart in the source and are kept apart here.
Experiments:
[1] = system: A375 human malignant melanoma cell line; assay: MTT cytotoxicity assay, A375; type: cell-based; details: A-375, 48 h, read-out: IC50 (Means ± SD) A375
Protocol: (§1) The cytotoxic activity of the compounds on cancer cell lines, including HT-29, MCF-7, A375, K562, andNCM460cell lines, was measured using the MTT assay with a small modification. Briefly, cells were plated in 96-well plates at a density of 1 × 10^4 cells per well and allowed to grow overnight, then the medium was replaced with fresh RPMI1640 medium containing serially diluted compounds, and the cells were further incubated at 37 °C with 5% CO2 for 48 h. In this experiment, 1 and 6 were diluted into six different series concentrations from 10 μg/mL to 0.0097 μg/mL with 4× dilution each, while 2 and 3 were diluted from 500 μg/mL to 2.06 μg/mL, and 4, 5, and 7 from 300 μg/mL to 1.23 μg/mL with 3× dilution each. Paclitaxel, a clinical medication used as a positive control, was diluted from 100 μg/mL to 3.125 μg/mL with […]. HT-29, MCF-7, and A375 were all cultured in serum-free RPMI1640, while the K562 was cultured in DMEM containing FBS throughout this experiment. The culture medium was removed after the incubation, and then 100 μL of the 5 mg/mL MTT solution was added to each well and further incubated at 37 °C for 4 h. Finally, the supernatants were removed, and 150 μL of dimethyl sulfoxide (DMSO) was added to each well. After shaking the plates for 10 min at room temperature, the optical density value was measured spectrophotometrically at 570 nm using the microplate reader. The IC50 value (50% inhibitory concentration) was determined to evaluate the cell viability of these cell lines. In this experiment, Graph Pad Prism 5software (San Diego, CA, USA) was used to calculate the half inhibitory concentration (IC50) values. Each experiment was independently repeated at least three times and represented as the means ± standard deviation (SD).

[2] = system: MCF-7 human breast cancer cell line; assay: MTT cytotoxicity assay, MCF-7; type: cell-based; details: MCF7, 48 h, read-out: IC50 (Means ± SD) MCF-7
Protocol: as §1

[3] = system: NCM460 human normal colon epithelial cell line; assay: MTT cytotoxicity assay, NCM460; type: cell-based; details: 48 h, read-out: IC50 (Means ± SD) NCM460
Protocol: as §1

[4] = system: K562 human chronic myeloid leukemia cell line; assay: MTT cytotoxicity assay, K562; type: cell-based; details: 48 h, read-out: IC50 (Means ± SD) K562
Protocol: as §1

[5] = system: HT-29 human colon cancer cell line; assay: MTT cytotoxicity assay, HT-29; type: cell-based; details: 48 h, read-out: IC50 (Means ± SD) HT-29
Protocol: as §1

[6] = system: HT-29, MCF-7, A375, K562 and NCM460 cell lines; assay: MTT cytotoxicity assay, whole panel of cell lines; type: cell-based, human; details: for cytotoxic activity toward the tested cell lines (in words): all tested cell lines; for IC50: Homo sapiens, range over all tested cell lines, read-out: IC50 values ranging over the tested cell lines
Protocol: as §1

[7] = medium containing FBS, NA = not active

Compound | IC50 ([1]; medium without FBS) | IC50 ([2]; medium without FBS) | IC50 ([3]; normal colon epithelial cells) | IC50 [4, 7] | IC50 ([5]; medium without FBS) | cytotoxic activity toward the tested cell lines (in words) [6] | IC50 [6] | IC50 ([1]; positive control) | IC50 ([2]; positive control) | IC50 ([3]; positive control) | IC50 ([4]; positive control) | IC50 ([5]; positive control)
CC[C@@H](O)CC1CCC([C@H](C)C(=O)Nc2ccccc2N)O1 (some centres unmarked) [Compound 18] | 108 ± 5.22 µM | 302.4 ± 1.83 µM | 55.7 ± 7.65 µM | 402.9 ± 0.69 µM | 235.7 ± 1.31 µM | broad toxicity | – | – | – | – | – | –
CCC[C@H](CC1CCC([C@H](C)C(=O)O)O1)O[Si](C)(C)C(C)(C)C (some centres unmarked) [Compound 20] | 215 ± 0.76 µM | 284.3 ± 1.24 µM | 37 ± 1.39 µM | 323 ± 5.94 µM | 356 ± 7.67 µM | broad toxicity | – | – | – | – | – | –
CC[C@@H](O)CC1CCC([C@H](C)C(=O)OC(C)C)O1 (some centres unmarked) [Compound 9] | 115 ± 3.66 µM | 171 ± 5.08 µM | 29 ± 3.68 µM | 69.4 ± 3.9 µM | 113 ± 3.68 µM | broad toxicity | – | – | – | – | – | –
CC[C@@H](O)CC1CCC([C@H](C)C(=O)Oc2ccc(C=O)cc2OC)O1 (some centres unmarked) [Compound 15] | 175 ± 6.11 µM | – | – | 175 ± 3.28 µM | 531 ± 5.46 µM | – | – | – | – | – | – | –
CC(C)CC1NC(=O)C2CCCN2C1=O (centres unmarked) [Compound 7, cyclo-(Pro-Leu)] | 51.1 ± 4.73 µM | 78.8 ± 1.95 µM | 776 ± 11.4 µM | 21.7 ± 0.35 µM | 102 ± 2.66 µM | – | – | – | – | – | – | –
CCOC(=O)[C@@H](C)C1CCC(C[C@@H](C)O)O1 (some centres unmarked) [Compound 8] | 445.9 ± 4.1 µM | 847 ± 39.5 µM | 164 ± 3.09 µM | – | 441.3 ± 1.65 µM | – | – | – | – | – | – | –
CCCCOC(=O)[C@@H](C)C1CCC(C[C@H](O)CC)O1 (some centres unmarked) [Compound 10] | 314.6 ± 0.57 µM | 416.5 ± 3.9 µM | 109 ± 3.6 µM | 285.1 ± 2.44 µM | 326.8 ± 1.4 µM | – | – | – | – | – | – | –
CCCCCCCCCCOC(=O)[C@@H](C)C1CCC(C[C@@H](C)O)O1 (some centres unmarked) [Compound 11] | 24.29 ± 0.03 µM | 34.1 ± 1.87 µM | 44.2 ± 0.64 µM | 38.2 ± 0.7 µM | 43.2 ± 2.84 µM | – | 24.3 to 44.2 µM | – | – | – | – | –
CC[C@@H](O)C[C@H]1CC[C@@H]([C@H](C)C(=O)O)O1 [Compound 3, homononactic acid] | 146 ± 2.01 µM | 99.1 ± 2.66 µM | 1027 ± 8.01 µM | 57 ± 1.88 µM | 39.9 ± 3.22 µM | – | – | – | – | – | – | –
CCCCCCCCCCCCCCCCCCOC(=O)[C@@H](C)C1CCC(C[C@H](O)CC)O1 (some centres unmarked) [Compound 13] | 217.6 ± 0.99 µM | 362.4 ± 0.96 µM | 299.3 ± 1.77 µM | 313 ± 3.29 µM | 322 ± 4.17 µM | – | – | – | – | – | – | –
CC(=O)O[C@H]1C(=O)[C@@]2(C)[C@H]([C@H](OC(=O)c3ccccc3)[C@]3(O)C[C@H](OC(=O)[C@H](O)[C@@H](NC(=O)c4ccccc4)c4ccccc4)C(C)=C1C3(C)C)[C@]1(OC(C)=O)CO[C@@H]1C[C@@H]2O [Paclitaxel, reference compound] | – | – | – | – | – | – | – | 0.0458 ± 0.00179 µM | 0.0138 ± 0.00212 µM | 0.0182 ± 0.00234 µM | 0.00931 ± 0.00188 µM | 0.00569 ± 0.00132 µM
C[C@H](C(=O)N1CCCCC1)C1CCC(C[C@@H](C)O)O1 (some centres unmarked) [Compound 17] | 199.1 ± 1.9 µM | 390 ± 10 µM | 180 ± 7.88 µM | 339 ± 1.23 µM | 563 ± 7.35 µM | – | – | – | – | – | – | –
CC[C@@H](O)CC1CCC([C@H](C)C(=O)OCc2ccccc2)O1 (some centres unmarked) [Compound 14] | 89.9 ± 1.09 µM | 111 ± 3.89 µM | 21.1 ± 3.66 µM | 41.4 ± 2.84 µM | 73.2 ± 1.05 µM | broad toxicity | 21.1 to 89.9 µM | – | – | – | – | –
CCCCCCCCCCCCCCOC(=O)[C@@H](C)C1CCC(C[C@H](O)CC)O1 (some centres unmarked) [Compound 12] | 127 ± 6.65 µM | 485.6 ± 3.18 µM | 150 ± 4.03 µM | 187 ± 4.57 µM | 209 ± 3.25 µM | – | – | – | – | – | – | –
CC[C@@H](O)CC1CCC([C@H](C)C(=O)Oc2ccc(-c3ccccc3)cc2)O1 (some centres unmarked) [Compound 16] | 67.32 ± 0.25 µM | 156 ± 3.56 µM | 110 ± 1.36 µM | 105 ± 2.58 µM | 165.1 ± 1.23 µM | – | – | – | – | – | – | –
CC[C@@H](O)CC1CCC([C@H](C)C(=O)Nc2nc3ccccc3s2)O1 (some centres unmarked) [Compound 19] | 128.5 ± 0.48 µM | 270.3 ± 1.09 µM | 80.1 ± 3.82 µM | – | 169 ± 4.2 µM | – | – | – | – | – | – | –
CC(C)[C@@H]1NC(=O)[C@H](C)OC(=O)[C@@H](C(C)C)NC(=O)[C@@H](C(C)C)OC(=O)[C@H](C(C)C)NC(=O)[C@H](C)OC(=O)[C@@H](C(C)C)NC(=O)[C@@H](C(C)C)OC(=O)[C@H](C(C)C)NC(=O)[C@H](C)OC(=O)[C@@H](C(C)C)NC(=O)[C@@H](C(C)C)OC1=O [Compound 6, valinomycin] | – | – | – | – | – | significant cytotoxic activities | – | – | – | – | – | –
CC[C@@H](O)C[C@H]1CC[C@@H]([C@H](C)C(=O)O[C@@H](CC)C[C@@H]2CC[C@H]([C@@H](C)C(=O)O)O2)O1 [Compound 5, homononactylhomononactate] | 30.7 ± 0.93 µM | 16.7 ± 1.08 µM | 33.3 ± 3.31 µM | 14.2 ± 0.47 µM | 38.1 ± 2.35 µM | – | – | – | – | – | – | –
CC[C@H](O)CC(=O)CC[C@H](O)C(C)C(=O)O (some centres unmarked) [Compound 1] | 45 ± 1.21 µM | 5.44 ± 1.33 µM | 27.9 ± 4.7 µM | 1.56 ± 0.21 µM | 1.98 ± 1.04 µM | less activity | – | – | – | – | – | –
C[C@H](C(=O)O)[C@@H]1CC[C@H](C[C@@H](C)O)O1 [Compound 2, nonactic acid] | 185.9 ± 1.27 µM | 289 ± 3.54 µM | 1605 ± 14.4 µM | 83.6 ± 2.54 µM | 44.4 ± 2.77 µM | – | – | – | – | – | – | –
CCOC(=O)[C@@H](C)[C@@H]1CC[C@H](C[C@H](O)CC)O1 [Compound 4, ethyl homononactate] | 65.09 ± 0.62 µM | 39.6 ± 2.57 µM | 249 ± 4.22 µM | 12.3 ± 0.54 µM | 11.8 ± 1.83 µM | – | – | – | – | – | – | –

Source: paper PMC8704880, “Secondary Metabolites with Cytotoxic Activities from Streptomyces sp. BM-8 Isolated from the Feces of Equus quagga” (Molecules, 2021)
